Measurements taken from the NIST ThermoML archive (doi:10.1016/j.jct.2013.11.020).
Numbers after ± are expanded uncertainties.

Assay: not given
Conditions: 298.15 K; 101.33 kPa; Liquid; Vibrating tube method

Row | Structure (SMILES) | mass density [kg/m3]
1 | Cc1ccccc1 [toluene] | 862.17 ± 0.13
2 | CCCCn1cc[n+](C)c1.COS(=O)(=O)[O-] [1-butyl-3-methylimidazolium methyl sulfate] | 1212.59 ± 0.41
3 | CCCn1cc[n+](C)c1.O=S(=O)([N-]S(=O)(=O)C(F)(F)F)C(F)(F)F | 1474.44 ± 0.65
4 | CCCC[n+]1ccn(C)c1.O=S(=O)([N-]S(=O)(=O)C(F)(F)F)C(F)(F)F | 1436.35 ± 0.61

Second part, the molecule after the results:

Row | mass density [kg/m3] | Structure (SMILES)
5 | 655.19 ± 0.2 | CCCCCC [hexane]
6 | 862.51 ± 0.13 | CCc1ccccc1 [ethylbenzene]
7 | 805.69 ± 0.24 | C1=CCCCC1 [cyclohexene]

Assay: refractive index (Na D-line) (dimensionless)
Conditions: 298.15 K; 101.33 kPa; Liquid; Standard Abbe refractometry

Row | Structure (SMILES) | refractive index
8 | Cc1ccccc1 [toluene] | 1.49399 ± 0.00031
9 | CCCCn1cc[n+](C)c1.COS(=O)(=O)[O-] [1-butyl-3-methylimidazolium methyl sulfate] | 1.47792 ± 0.00037
10 | CCCn1cc[n+](C)c1.O=S(=O)([N-]S(=O)(=O)C(F)(F)F)C(F)(F)F | 1.42526 ± 0.00037
11 | CCCC[n+]1ccn(C)c1.O=S(=O)([N-]S(=O)(=O)C(F)(F)F)C(F)(F)F | 1.42706 ± 0.00037

The remaining lines, values ahead:

Row | refractive index | Structure (SMILES)
12 | 1.37234 ± 0.00033 | CCCCCC [hexane]
13 | 1.49304 ± 0.00031 | CCc1ccccc1 [ethylbenzene]
14 | 1.44378 ± 0.00037 | C1=CCCCC1 [cyclohexene]
